Test results as given in paper PMC11881437 (Molecular Medicine, 2025).

Columns and labels:
[1] = test system: CSC enriched spheres (CES) derived from HCT116 cells; test: Cellular ROS, NO and LPO level in CES; assay type: cell-based, human; conditions: 24 h, 26 µM Orientin, 13 µM 5FU, 14 µM Orientin + 7 µM 5FU
Procedure: Reactive oxygen species (ROS) level in the cells of treated and untreated CESs was measured by 2′,7′-dichlorofluorescein diacetate (DCFH-DA) standard protocol (Bhattacharjee et al. [2014]). The production of nitric oxide (NO) were estimated by the level of stable NO metabolites, viz., nitrate (NO3^–) and nitrite (NO2^–) ions by reaction with Griess reagent (Bryan and Grisham [2007]). […]

OCT4, SOX2 and NANOG = test: Real time PCR of stemness factors in sorted CD44+/CD133+ cells; assay type: cell-based, human; conditions: 24 h
From the text: CD44^+/CD133^+ cells were isolated using MACS LS column (Miltenyi Biotec, USA) after leveled with CD44 and CD133 antibody conjugated with microbeads (Miltenyi Biotec, USA) by following manufacture’s protocol and subjected to further analysis. Cells expressing both CD44 and CD133 were isolated using magnetic cell sorter (MACS) (Guerriero et al. [2017]).
Total RNA was extracted from sorted CD44^+/CD133^+ cell population using TRIZOL (Thermo Fisher Scientific, USA) as described in manufacturer’s protocol. cDNAs were synthesized from RNA templates by using cDNA isolation kit (Bio-Rad, USA) and target genes like OCT4, SOX2 and NANOG were amplified by using real time PCR kit (Bio-Rad, USA) following manufacturer’s instructions by Roche LightCycler® 96 System (Switzerland). Glyceraldehyde-3-phosphate dehydrogenase (GAPDH) gene expression was used to normalize the expression of the target genes.

HCT116 cells [2] = test: Annexin V/PI flow cytometry (apoptosis); assay type: cell-based, human; conditions: HCT116, 48 h, IC50 doses; untreated 7.9%
Procedure: Percentage of apoptotic cells were detected by Annexin V and propidium Iodide (PI) staining by flow cytometry analysis according to the protocols provided by manufacturer of the kit (Invitrogen, USA). In brief, cells were washed with PBS, suspended in binding buffer followed by incubation with Annexin V and PI. Then, the cells were analysed by using a flow cytometer (BD LSRFortessaTM X-20).

[3] = test system: CT26 cell induced solid tumor; test: CT26 syngeneic colorectal tumor model; assay type: in vivo, BALB/c mice; conditions: for tumor volume: 10 days, Orientin 5 mg/kg b.w/day i.v., 5FU 5 mg/kg b.w i.v. alternate day; for tumor volume / survival (Kaplan Meier): vs control; for tumor tissue histopathology: H&E; for number of blood vessels in tumor tissue: H&E sections; for CD44+/CD133+ cells in tumor tissue / HIF1α and VEGFA expression in tumor: immunofluorescence; for survival (Kaplan Meier): tumor bearing mice
Procedure: To set up therapeutic in vivo model, CT26 cells (2 × 10^6 cells/animal), syngeneic to BALB/c mice were injected subcutaneously to the right hind limb of the each animal. Palpable tumor was formed after 10 days. […] Six mice from each group were sacrificed on day 11 and the others were left for performing survivability assay using Kaplan–Meier method (Hajra et al. [2018a]).
Various organs and solid tumors collected after sacrificing the mice were embedded into paraffin after 10% neutral buffered formalin fixation. 4 μm sections were prepared and used for histopathological study. Standard Hematoxylin and Eosin (H&E) staining protocol was used and sections were visualized under light microscope (DM 1000, Leica, Germany) (Hajra et al. [2018a]).
Immunofluorescence assay was carried out as described previously (Shimizu et al. [2023]). Tissue sections were blocked with 3% BSA and incubated with primary antibodies like HIF1α, VEGFA, CD44 (Thermo Fisher Scientific, USA) and CD133 (Abcam, USA) at room temperature for 2 h. Alexa fluor 488 and Alexa fluor 594 tagged secondary (Thermo Fisher Scientific, USA) antibodies were added to all the tissue sections for 1 h followed by DAPI staining and images were visualized under fluorescence microscope (Olympus BX53, Japan).

[4] = test system: CSC enriched spheres (CES) derived from HCT116 cells; test: Tumorosphere (CES) diameter and number; assay type: cell-based, human; conditions: 24 h, 5FU vs control, Orientin and combination vs 5FU
Procedure: (§1) HCT116 CRC cells were grown in ultra-low attachment plate in 3dGRO™ Spheroid Medium (Sigma-Aldrich, USA) for 7 days. Spheroids enriched with CSCs were considered as CSC enriched spheres (CESs) or commonly referred as tumorospheres. After 7 days, tumorospheres were subjected to different treatments for 24 h, as per experimental protocol. Media of tumorospheres of all the treatment groups were collected, centrifuged to remove the cell debris and suspended spheres, supernatants were collected and vacuum concentrated. These supernatants were referred as conditioned medium (CM) and were stored at − 20 °C until use.

[5] = Serum cytotoxicity markers (ALT, AST, ALP, BUN, creatinine); assay type: in vivo; conditions: BALB/c mice, 10 days, mean ± SD, n = 6
Procedure: To determine the toxicity of only Orientin treatment in various doses, the mice were divided into five groups. Each group contained six animals (n = 6). Each animal of the vehicle control group (VC) was left untreated, while, mice of other four groups were administered Orientin intravenously with 1 mg/kg b.w, 3 mg/kg b.w, 5 mg/kg b.w and 10 mg/kg b.w dosage respectively for 28 days. […] All the treatments were continued for 10 days. On day 11 all the mice were sacrificed and different parameters were studied.
Blood samples were collected from the retro-orbital venous plexus of mice for quantitative analysis of alanine aminotransferase (ALT), aspartate aminotransferase (AST), alkaline phosphatase (ALP), creatinine and blood urea nitrogen (BUN) in serum following kit protocol (Sigma Aldrich, USA). Optical densities were determined by using a spectrophotometer (Infinite® 200 PRO, TECAN, Switzerland).

HCT116 cells [6] = test: Atomic force microscopy of cell morphology; assay type: cell-based, human; conditions: HCT116, 24 h; 26 µM Orientin, 13 µM 5FU, 14 µM Orientin + 7 µM 5FU
Procedure: The material properties and dimensions of the probe used in contact mode were as follows: resonance frequency of 13 kHz (± 4 kHz), force constant of 0.2 N/m (± 0.14 N/m), cantilever length of 450 µm (± 10 µm), cantilever width of 38 µm (± 5 µm), cantilever thickness of 2 µm (± 1 µm), tip radius of 5 nm (± 1 nm), and tip height of 17 µm (± 2 µm). The scan area depends on the size of the cancer cell and ranged from 20 × 10–30 × 20 µm^2. Image processing and data analysis were performed using Picoview 1.10 software.

[7] = test system: CD44+/CD133+ CSC population in CES derived from HCT116 cells; test: Flow cytometry of CD44+/CD133+ cells in tumorospheres; assay type: cell-based, human; conditions: 24 h, 26 µM Orientin, 13 µM 5FU, 14 µM Orientin + 7 µM 5FU, untreated 18.4%
Procedure: as §1
Percentages of CD44^+/CD133^+ cell population were determined within tumorospheres and HIF1α positive cells were determined within the CD44^+/CD133^+ cell population using a flow cytometer (BD LSRFortessa™ X-20) and analyzed by BD FACSDiva™ software.

SMILES | ROS, NO and LPO production in tumorospheres [1] | mRNA level of stemness maintenance factors (OCT4, NANOG, SOX2) (OCT4, SOX2 and NANOG) | percentage of apoptotic cells (HCT116 cells [2]) [%] | tumor volume [3] | tumor tissue histopathology [3] | number of blood vessels in tumor tissue [3] | CD44+/CD133+ cells in tumor tissue [3] | HIF1α and VEGFA expression in tumor [3] | survival (Kaplan Meier) [3] | diameter of spheres [4] | number of spheres [4] | ALP [5] [U/ml] | ALT [5] [U/ml] | AST [5] [U/ml] | BUN [5] [mg/dL] | Creatinine [5] [mg/dL] | cell morphology by AFM (HCT116 cells [6]) | CD44+/CD133+ cell population [7] [%]
O=c1[nH]cc(F)c(=O)[nH]1 [5FU, 5-Fluorouracil, reference compound] | increased | increased | 54.5 | decrease in the tumor volume | cell numbers were found to be reduced | increasing blood vessels number | increased | increase | increased life span | significantly increased | significantly increased | 168.44 ± 4.09 | 121.70 ± 3.95 | 219.16 ± 2.83 | 30.76 ± 0.46 | 0.73 ± 0.023 | cell shrinkage, distortion, nuclear condensation and fragmentation, membrane blebbing and morphological changes of cellular bodies | 22.3
O=c1cc(-c2ccc(O)c(O)c2)oc2c([C@@H]3O[C@H](CO)[C@@H](O)[C@H](O)[C@H]3O)c(O)cc(O)c12 [Orientin] | decrease | decreased | 49.3 | decrease in the tumor volume | lost their compactness | reduced | reduction | decreased | increased life span | significant decreases | significant decreases | 94.23 ± 2.10 | 49.08 ± 1.99 | 134.7 ± 2.00 | 21.48 ± 0.53 | 0.49 ± 0.020 | cell shrinkage, distortion, nuclear condensation and fragmentation, membrane blebbing and morphological changes of cellular bodies | 13.5
